The record followed here is ChEMBL document CHEMBL4725267, “Design and synthesis of potent inhibitors of bc complex based on natural product neopeltolide” (Bioorg Med Chem Lett, 2020).

As usually defined, the IC50 is the concentration that inhibits the measured activity by half. A low value points to greater potency in that assay. What is called inhibition is the change of the read-out against control, counted positive when it falls.

Test system in the first test: not listed separately
Description: Inhibition of bovine heart mitochondrial cytochrome bc1 complex. The class given is mitochondria, Bos taurus, Mitochondria.
Settings: not given
Turning to `CCC[C@H]1C[C@@H](OC)C[C@H](C)C[C@@H]2C[C@@H](OC(=O)/C=C\CCc3coc(/C=C\CNC(=O)OC)n3)C[C@H](CC(=O)O1)O2`, the midpoint of inhibition, the IC50, lay at 2 nM.

Biological target in another test: not listed separately
Description: Inhibition of porcine heart Succinate-cytochrome c reductase complex 2 by measuring decrease in DCIP.
Settings: not given
The class given is tissue-based, Sus scrofa.
The compound `COC(=O)NC/C=C\c1nc(C(=O)Nc2cccc3c2ccn3Cc2ccc(F)cc2)co1` had an IC50 of 1460 nM.

`COC(=O)NC/C=C\c1nc(C(=O)Nc2cccc3c2ccn3Cc2cccc(F)c2)co1`: the IC50 was found to be 1750 nM.

For the compound `COC(=O)NC/C=C\c1nc(C(=O)Nc2cccc3c2ccn3Cc2ccccc2F)co1`, the IC50 was 1340 nM.

As to `COC(=O)NC/C=C\c1nc(C(=O)Nc2cccc3c2ccn3Cc2cccc(C)c2)co1`, inhibition was half-maximal at 700 nM (IC50).

For another test, the species on record is Sus scrofa. Description: Inhibition of porcine heart Succinate-cytochrome c reductase complex 2 by measuring decrease in DCIP at 1 uM relative to control. In kind it is tissue-based. The note with it: […].
With `COC(=O)NC/C=C\c1nc(C(=O)Nc2cccc3c2ccn3Cc2ccc(C)cc2)co1`, the inhibition amounted to 55%.

In the case of `COC(=O)NC/C=C\c1nc(C(=O)Nc2cccc3c2ccn3Cc2ccccc2C)co1`, the inhibition amounted to 65%.

The species entered for the next test is Sus scrofa. Description: (§1) Inhibition of porcine heart Succinate-cytochrome c reductase complex 2 by measuring decrease in DCIP at 10 uM relative to control. In kind it is tissue-based.
Settings: not given
With `COC(=O)NC/C=C\c1nc(C(=O)OCc2cccc3[nH]cc(Cl)c23)co1`, the inhibition turned out to be 12%.

For the compound `COC(=O)NC/C=C\c1nc(C(=O)OCc2cccc3c2c(Cl)cn3Cc2ccc(F)cc2F)co1`, the inhibition worked out at 46%.

`COC(=O)NC/C=C\c1nc(C(=O)OCc2cccc3c2c(Cl)cn3Cc2ccccc2Cl)co1` showed an inhibition of 31%.

For the compound `COC(=O)NC/C=C\c1nc(C(=O)OCc2cccc3c2c(Cl)cn3Cc2ccc(Br)cc2)co1`, the inhibition is 14%.

As to `COC(=O)NC/C=C\c1nc(C(=O)OCc2cccc3c2c(Cl)cn3Cc2cccc(Cl)c2)co1`, the inhibition turned out to be 23%.

Consider `C=CCn1cc(Cl)c2c(COC(=O)c3coc(/C=C\CNC(=O)OC)n3)cccc21`, for which the inhibition came to 21%.

The compound `CCCn1cc(Cl)c2c(COC(=O)c3coc(/C=C\CNC(=O)OC)n3)cccc21` yielded an inhibition of 24%.

The compound `COC(=O)NC/C=C\c1nc(C(=O)OCc2cccc3c2c(Cl)cn3Cc2ccc(C)cc2)co1` gave an inhibition of 11%.

Turning to `COC(=O)NC/C=C\c1nc(C(=O)OCc2cccc3c2c(Cl)cn3Cc2ccccc2F)co1`, the inhibition came out at 50%.

In the case of `COC(=O)NC/C=C\c1nc(C(=O)OCc2cccc3c2c(Cl)cn3Cc2ccccc2C)co1`, the inhibition came out at 47%.

Compound `COC(=O)NC/C=C\c1nc(C(=O)OCc2cccc3c2c(Cl)cn3Cc2ccc(F)cc2)co1` yielded an inhibition of 46%.

Compound `COC(=O)NC/C=C\c1nc(C(=O)OCc2cccc3c2c(Cl)cn3Cc2cc(C)cc(C)c2)co1` returned an inhibition of 27%.

`COC(=O)NC/C=C\c1nc(C(=O)OCc2cccc3c2c(Cl)cn3C)co1` had an inhibition of under 10%.

In turn, `COC(=O)NC/C=C\c1nc(C(=O)OCc2cccc3c2c(Cl)cn3Cc2cccc(Br)c2)co1` had an inhibition of 34%.

`COC(=O)NC/C=C\c1nc(C(=O)OCc2cccc3c2c(Cl)cn3Cc2ccccc2Br)co1` displayed an inhibition of 33%.

The compound `C#CCn1cc(Cl)c2c(COC(=O)c3coc(/C=C\CNC(=O)OC)n3)cccc21` returned an inhibition of 25%.

For the compound `CCn1cc(Cl)c2c(COC(=O)c3coc(/C=C\CNC(=O)OC)n3)cccc21`, the inhibition is under 10%.

Compound `COC(=O)NC/C=C\c1nc(C(=O)OCc2cccc3c2c(Cl)cn3Cc2ccc(Cl)cc2)co1` registered an inhibition of 31%.

Consider `COC(=O)NC/C=C\c1nc(C(=O)OCc2cccc3c2c(Cl)cn3Cc2cccc(F)c2)co1`, for which the inhibition came out at 32%.

For `COC(=O)NC/C=C\c1nc(C(=O)OCc2cccc3c2c(Cl)cn3Cc2ccccc2)co1`, the inhibition amounted to 41%.

`COC(=O)NC/C=C\c1nc(C(=O)OCc2cccc3c2c(Cl)cn3Cc2cccc(C)c2)co1`: the inhibition came to 49%.

Biological target in a further test: not listed separately
The description is as §1. In kind it is tissue-based, Sus scrofa.
Settings: not given
In turn, `CO/C=C(/C(=O)OC)c1ccccc1Oc1cc(Oc2ccccc2C#N)ncn1` [AZOXYSTROBIN] displayed a half-maximal inhibitory concentration (IC50) of 700 nM.
